Experimental data published in ChEMBL document CHEMBL4184299, “Regioselective and efficient enzymatic synthesis of antimicrobial andrographolide derivatives” (Bioorg Med Chem Lett, 2018).
In brackets after ≈: the same amount, converted by molar mass. Activity calls are given as the source filed them. No cut-off for these calls is given here.

What was measured:
[1] = system: Candida albicans; experiment: Antimicrobial activity against Candida albicans; format: functional
[2] = system: Rhizopus arrhizus; experiment: Antimicrobial activity against Rhizopus oryzae; format: functional
[3] = Hemolytic activity in human RBC at 25 ug/ml relative to control; format: ADME, cell-based, Erythrocyte; settings: red blood cells (erythrocytes), read-out: Activity
[4] = system: Staphylococcus aureus; experiment: Antimicrobial activity against Staphylococcus aureus; format: functional
[5] = system: Micrococcus luteus; experiment: Antimicrobial activity against Micrococcus luteus; format: functional
[6] = system: Aspergillus fumigatus; experiment: Antimicrobial activity against Aspergillus fumigatus; format: functional
[7] = system: Pseudomonas fluorescens; experiment: Antimicrobial activity against Pseudomonas fluorescens; format: functional
[8] = system: Escherichia coli; experiment: Disruption of membrane integrity in Escherichia coli assessed as protein leakage at MIC; format: functional, organism-based
[9] = system: Escherichia coli; experiment: Antimicrobial activity against Escherichia coli; format: functional
[10] = system: Escherichia coli; experiment: Induction of membrane disruption in Escherichia coli assessed as translucent membranes at MIC after 60 mins by SEM analysis; format: functional, organism-based
[11] = system: Escherichia coli; experiment: Induction of membrane disruption in Escherichia coli assessed as blurred membranes at MIC after 60 mins by SEM analysis; format: functional, organism-based
[12] = system: Escherichia coli; experiment: Induction of membrane disruption in Escherichia coli assessed as deflated membranes at MIC after 60 mins by SEM analysis; format: functional, organism-based
[13] = system: Escherichia coli; experiment: Induction of membrane permeability in Escherichia coli at MIC by DAPI/FITC/propidium iodide staining-based fluorescent microscopic analysis; format: functional, organism-based

For `C=C1CC[C@@H]2[C@](C)(CO)[C@H](O)CC[C@@]2(C)[C@@H]1C/C=C1/C(=O)OC[C@H]1OC(C)=O`, the MIC [1] was 32 mg/L (≈ 81.5 µM), the MIC [2] was greater than 128 mg/L and the hemolysis at 25 ug/ml [3] was 4.8%. For the same molecule, the MIC [4] was 16 mg/L (≈ 40.8 µM), the MIC [5] was 32 mg/L (≈ 81.5 µM) and the MIC [6] was greater than 128 mg/L. The MIC [7] was 4 mg/L (≈ 10.2 µM), the Activity [8] was “Active” and the MIC [9] was 64 mg/L (≈ 163 µM).

In the case of `C=C1CC[C@@H]2[C@](C)(CO)[C@H](O)CC[C@@]2(C)[C@@H]1C/C=C1/C(=O)OC[C@H]1OC(=O)CC`, the Activity [10] is reported as “Active”, the MIC [1] is reported as 16 mg/L (≈ 39.4 µM) and the MIC [2] is reported as greater than 128 mg/L. The Activity [11] was “Active”, the hemolysis at 25 ug/ml [3] was 6.4% and the MIC [4] was 4 mg/L (≈ 9.84 µM). For the same molecule, the Activity [12] was “Active”, the MIC [5] was 16 mg/L (≈ 39.4 µM) and the MIC [6] was greater than 128 mg/L. The MIC [7] was 32 mg/L (≈ 78.7 µM), the Activity [13] was “Active” and the MIC [9] was 8 mg/L (≈ 19.7 µM).

Molecule `C=C1CC[C@@H]2[C@](C)(CO)[C@H](O)CC[C@@]2(C)[C@@H]1C/C=C1/C(=O)OC[C@H]1OC(=O)CCCCCCCCC` has an MIC [1] greater than 128 mg/L, an MIC [2] greater than 128 mg/L and a hemolysis at 25 ug/ml [3] of 35%. It also gave an MIC [4] of 16 mg/L (≈ 31.7 µM), an MIC [5] of 64 mg/L (≈ 127 µM) and an MIC [6] greater than 128 mg/L. The MIC [7] was 64 mg/L (≈ 127 µM), the Activity [8] was “Active” and the MIC [9] was 32 mg/L (≈ 63.4 µM).

`C=C1CC[C@@H]2[C@](C)(CO)[C@H](O)CC[C@@]2(C)[C@@H]1C/C=C1/C(=O)OC[C@H]1OC(=O)CCCCCCCCCCC` showed an MIC [1] of 32 mg/L (≈ 60.1 µM), an MIC [2] greater than 128 mg/L and a hemolysis at 25 ug/ml [3] of 46%. The MIC [4] was 16 mg/L (≈ 30 µM), the MIC [5] was 16 mg/L (≈ 30 µM) and the MIC [6] was greater than 128 mg/L. The MIC [7] was greater than 128 mg/L, the Activity [8] was “Active” and the MIC [9] was 64 mg/L (≈ 120 µM).

In the case of `C=C1CC[C@@H]2[C@](C)(CO)[C@H](O)CC[C@@]2(C)[C@@H]1C/C=C1/C(=O)OC[C@H]1OC(=O)CCC`, the Activity [10] is reported as “Active”, the MIC [1] is reported as 64 mg/L (≈ 152 µM) and the MIC [2] is reported as greater than 128 mg/L. For the same molecule, the Activity [11] was “Active”, the hemolysis at 25 ug/ml [3] was 7.1% and the MIC [4] was 8 mg/L (≈ 19 µM). The Activity [12] was “Active”, the MIC [5] was 32 mg/L (≈ 76.1 µM) and the MIC [6] was greater than 128 mg/L. For the same molecule, the MIC [7] was 16 mg/L (≈ 38 µM), the Activity [13] was “Active” and the Activity [8] was “Active”. For the same molecule, the MIC [9] was 4 mg/L (≈ 9.51 µM).

For `C=C1CC[C@@H]2[C@](C)(CO)[C@H](O)CC[C@@]2(C)[C@@H]1C/C=C1/C(=O)OC[C@H]1O` [ANDROGRAPHOLIDE], the MIC [1] was greater than 128 mg/L, the MIC [2] was greater than 128 mg/L and the hemolysis at 25 ug/ml [3] was 8.5%. The MIC [4] was greater than 128 mg/L, the MIC [5] was greater than 128 mg/L and the MIC [6] was greater than 128 mg/L. For the same molecule, the MIC [7] was greater than 128 mg/L and the MIC [9] was greater than 128 mg/L.

With `CN[C@@H]1[C@@H](O)[C@@H](O[C@@H]2[C@@H](O)[C@H](O[C@H]3O[C@H](CN)CC[C@H]3N)[C@@H](N)C[C@H]2N)OC[C@]1(C)O.O=S(=O)(O)O` the MIC [4] was 0.5 mg/L and the MIC [7] was 0.5 mg/L.

With `C[C@@H]1[C@H](O)[C@@H](C)/C=C/C=C/C=C/C=C/C=C/C=C/C=C/[C@H](O[C@@H]2O[C@H](C)[C@@H](O)[C@H](N)[C@@H]2O)C[C@@H]2O[C@](O)(C[C@@H](O)C[C@@H](O)[C@H](O)CC[C@@H](O)C[C@@H](O)CC(=O)O[C@H]1C)C[C@H](O)[C@H]2C(=O)O` [AMPHOTERICIN B] the MIC [2] was 1 mg/L (≈ 1.08 µM) and the MIC [6] was 0.5 mg/L (≈ 0.541 µM).
